# Reference: US8093393B2, “Cationic ceramides, and analogs thereof, and their use for preventing or treating cancer” (MUSC Foundation for Research Development, priority 2004, dated 2012)
# Like-named read-outs stand apart in the source and are kept apart here.
# Experiments:
# UM-SCC-14A cells = conditions: read-out: IC50, growth; UM-SCC14A, 48 hr
# Description: Cells were grown in DMEM containing 10% FCS and 1% penicillin/streptomycin at 37° C. in 5% CO2.
# MTT cell survival assay and isobologram studies. The concentrations of agents that inhibited cell growth by 50% (IC50) were determined from cell survival plots obtained by MTT assays. […] A straight line joining points on x- and y-axes represent the IC50 concentrations of GMZ and L-t-C6-Pyr-Cer alone, and the points representing the IC50 concentrations of the combination of the two agents are represented as scatter plots on the same graphs. […] The experiments were performed as triplicates in at least 3 independent experiments.
# UM-SCC-22A xenografts = conditions: 40 mg/kg alone or plus GMZ 80 mg/kg, 24 days
# Description: Treatment of UM-SCC-22A (hypopharynx) xenografts in SCID mice. […] Once the xenograft achieved a standard volume, the animals were randomized to receive no treatment (control), LCL-194 alone (40 mg/kg), LCL-124 alone (40 mg/kg), LCL-124 (40 mg/kg) plus GMZ (80 mg/kg), GMZ (80 mg/kg)+DOX (2 mg/kg), or 5FU plus cisplatin (25 mg/kg each). Tumors were measured every 4 days for 24 days.
# The compound was further tested in an animal model of SCID mouse and UM-SCC-22A xenografts (hypopharynx). Xenograft development and treatment was carried out by standard methods. Once the xenograft achieved a standard volume, the animals were randomized to receive no treatment (control), LCL-194 alone (40 mg/kg), LCL-124 alone (40 mg/kg), LCL-124 (40 mg/kg) plus GMZ (80 mg/kg), GMZ (80 mg/kg)+DOX (2 mg/kg), or 5FU plus cisplatin (25 mg/kg each). Tumors were measured every 4 days.
# [1] = system: MCF7 breast carcinoma cells; test: Cell proliferation and viability, Trypan blue exclusion assay; type: cell-based; conditions: 48 h
# Summary of the method: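 Cells seeded overnight in 10% FCS, then exposed to LCL compounds at 0-20 μM in ethanol (below 0.1%) for 48 h. Viable cell numbers counted by Trypan blue exclusion under light microscope, expressed as percentage of untreated controls; duplicate samples, two or three independent experiments.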
# [2] = BALB/c mice
# Description: (§1) The determination of MTD, and pharmacokinetic parameters, such as clearance from the serum, and bioaccumulation in various organs, of L-t-C6-Pyr-Cer in vivo. A) MTD of L-t-C6-Pyr-Cer was determined in dose escalation studies, in which BALB/c mice were treated (by IP injections) with increasing concentrations of the compound (10-150 mg/kg), dissolved in sterile saline solution, for 24 hr. […] B and C) The levels of L-t-C6-Pyr-Cer in the serum (B) or in the vital organs (C) of the BALB/c mice were measured by LC/MS after IP injection of the compound for various time points. The experiments were performed in two independent trials as duplicates, and error bars represent standard deviations.
# (§2) Animal studies. […] The maximum tolerated dose (MTD) of L-t-C6-Pyr-Cer was determined by dose escalation studies. In short, 7-week-old BALB/c mice were treated with increasing concentrations of the compound for various time intervals. Possible toxicity of the compound to the vital organs of the animals was analyzed by both gross examination, and histopathology. The accumulation of the compound in vital organs and in the serum was also determined by LC/MS as described previously Koybasi S et al. J Biol Chem 2004; 279:44311-44319).
# hTERT = hTERT mRNA (Q-PCR) and protein (Western blot) in tumor tissues; type: in vivo, human
# Text: FIG. 29. […] In (B), DNA samples obtained from tumors treated with GMZ (G), L-t-C6-Pyr-Cer (Cer), and the combination of L-t-C6-Pyr-Cer with GMZ (G/C, lanes 2-4, respectively) were compared to that of untreated (U) tumors (lane 1). Lanes 5 and 6 contain DNA samples with low (L) and high (H) molecular weight (3.9 and 10.2 kb, respectively) telomeres. In (D) The levels of hTERT protein in samples obtained from tumors treated with GMZ (G), L-t-C6-Pyr-Cer (Cer), and the combination of L-t-C6-Pyr-Cer with GMZ (G/Cer, lanes 2-4, respectively) were determined by Western blot analysis using rabbit polyclonal anti-hTERT antibody, and compared to that of untreated (U) tumors (lane 1). […]
# Determination of telomerase activity, hTERT mRNA and protein levels in tumor tissues. Telomerase activity in tissues was measured by the PCR-based telomere repeat amplification protocol (TRAP) using TRAPeze kit (Invitrogen) which includes a 36-bp internal control to allow quantification of activity. The intensity of telomere-specific DNA bands, measured using Quantity One (BioRad) software, were normalized to the intensity of internal control bands for each sample on polyacrylamide gels for quantification. […] The protein levels of hTERT in these tumor tissue extracts (in CHAPS buffer) were determined by Western blot analysis using anti-hTERT rabbit polyclonal antibody (CalBiochem) at 1:1000 dilution. […]
# HNSCC tumors = test: Endogenous ceramide and SM levels in HNSCC tumors, LC/MS; parameters: species or system SCID mice; conditions: mouse, in vivo
# Text: FIG. 28. […] The levels of C14-, C16-, C18-, C24-, C24:1-, dihydro-C16-ceramides, and sphingosine are shown in (A), and C18:1-, C20-ceramides, and dihydro-sphingosine, and sphingosine-1-phosphate levels are shown in (B). The levels of C16-, C22-, C-24 and C24:1-SM levels are shown in (C), and C14-, C18-, C18:1-, C20, C20:1, and C22:1 SM levels are shown in (D).
# [3] = IP 40 mg/ml
# Description: as §1, §2
# UM-SCC-22A cells = test: MTT cell survival assay and isobologram studies; type: cell-based, human; conditions: for IC50: UM-SCC-22A, read-out: IC50, cell growth
# Description: Human head and neck cancer cell lines UM-SCC-1 (retromolar trigone/floor of the mouth), UM-SCC-12 (primary tumor of larynx), and UM-SCC-22A cells were obtained from clinical samples. Cells were grown in DMEM containing 10% FCS and 1% penicillin/streptomycin at 37° C. in 5% CO2.
# MTT cell survival assay and isobologram studies. The concentrations of agents that inhibited cell growth by 50% (IC50) were determined from cell survival plots obtained by MTT. Triplicate wells were used for each treatment. The final concentration of DMSO (a solvent for conventional ceramides, GMZ and DOX) in the growth medium was less than 0.1% (v/v) which has no effect on cell growth and survival. Pyridinium ceramides were dissolved in sterile water or growth medium. In short, after cells (5-10×10^3/well) were seeded in 96-well-plates for 24 hr, they were treated with increasing concentrations of ceramide analogs for an additional 48 or 96 hr. For combination treatments, ceramides and chemotherapeutic agents (gemcitabine (GMZ) or doxorubicin (DOX)) were added to the growth medium simultaneously during treatment. Isobologram plots were then constructed using IC50 values of the two agents alone or in combination obtained from MTT assays. A straight line joining points on x- and y-axes represent the IC50 concentrations of two agents, and the points representing the IC50 concentrations of the combination of the two agents are represented as scatter plots on the same graphs. In general, the points that fall within the left of the straight line indicate synergism. The experiments were performed as triplicates in at least 3 independent experiments.
# Human head and neck cancer cell lines UM-SCC-1 (retromolar trigone/floor of the mouth), UM-SCC-14A (SCC of anterior floor of the mouth), and UM-SCC-22A (SCC of hypopharynx) cells were obtained. Cells were grown in DMEM containing 10% FCS and 1% penicillin/streptomycin at 37° C. in 5% CO2.
# MTT cell survival assay and isobologram studies. The concentrations of agents that inhibited cell growth by 50% (IC50) were determined from cell survival plots obtained by MTT assays. […] In general, the points that fall within the left of the straight line indicate synergism. The experiments were performed as triplicates in at least 3 independent experiments. Error bars represent standard deviations.
smiles,measurement,setting,value
"CCCCCCCCCCCCC/C=C/[C@H](O)[C@H](CO)NC(=O)CCCCC[n+]1ccccc1.[Br-] [LCL124, L-threo-2-N-[6′-(1″-Pyridinium)-hexanoyl]-sphingosine Bromide]",IC50,UM-SCC-14A cells,1000 to 2000 nM
same,suppression of xenograft tumor growth,UM-SCC-22A xenografts,can act alone or in combination with GMZ to suppress growth of chemotherapy-resistant classes of tumors
same,inhibitory effect on MCF7 cell growth (in words),[1],caused inhibitory effect on MCF7 cell growth
same,doses without any detectable toxicity,[2]; 1-4 days,10 to 80 mg/kg
same,maximum tolerated dose (MTD),[2]; IP,80 mg/kg
same,"toxic concentrations (severe abdominal bloating, intestinal malfunction)","[2]; IP, 24 hr",≥ 100 mg/kg
same,"single dose resulting in toxicity (abdominal bloating, intestinal malfunction)","[2]; IP, after about 6 hr",120 to 150 mg/mL
same,hTERT mRNA levels in tumors,hTERT; Q-PCR,decreased levels of hTERT mRNA and protein expression
same,hTERT protein levels in tumors,hTERT; Western blot,decreased levels of hTERT mRNA and protein expression
same,effect on endogenous SM levels,HNSCC tumors,no significant changes were observed
same,effect on endogenous ceramides in tumor site,HNSCC tumors,did not cause any sustained elevation of endogenous ceramides
same,accumulation in the brain or heart,[3],no significant accumulation
same,accumulation in the kidneys,[3],at high levels in the kidneys within 8-24 hr
same,time to clearance from the serum,[3],≤ 4 h
same,serum level,[3]; 0.5 hr,"4,500 pmol/0.1 ml serum"
same,serum level,[3]; 2 hr,"6,500 pmol/0.1 ml serum"
same,level in the intestines,[3]; after 5 min,about 600 pmol/mg protein
same,level in the liver,[3]; after 2 hr,~500 pmol/mg protein
same,accumulation in the lungs,[3]; after 24 hr,some accumulation
same,"interaction with GMZ, isobologram","UM-SCC-22A cells; UM-SCC-22A, 100, 250 and 500 nM with GMZ, 48 hr",decreased growth synergistically
same,IC50,"UM-SCC-22A cells; 48 hr, listed as L-t-C6-Pyr-Cer",1000 to 2000 nM
same,IC50,"UM-SCC-22A cells; 48 hr, listed as L-th-C6-Pyr-Cer",~1000 nM
same,IC50,"UM-SCC-22A cells; 96 hr, DMEM, listed as L-th-C6-Pyr-Cer",~300 nM
